Assay results: US8394836B2, “Indoles and their therapeutic use” (Pulmagen Therapeutics (Asthma) Limited, priority 2007, dated 2013)

Legend:
CRTH2 receptor [1] = biological target: T1, CRTH2 receptor (Homo sapiens, UniProt Q9Y5Y4); experiment: CRTH2 radioligand binding assay ([3H]-PGD2 displacement, SPA); details: HEK cell membranes expressing the CRTH2 receptor; 1 nM [3H]-PGD2; Ki from IC50 by Cheng-Prusoff
T1 construct: expressed in transfected cells; host or cells: Human embryonic kidney (HEK) cells, used as membranes
T1 sequence (Q9Y5Y4 1-395): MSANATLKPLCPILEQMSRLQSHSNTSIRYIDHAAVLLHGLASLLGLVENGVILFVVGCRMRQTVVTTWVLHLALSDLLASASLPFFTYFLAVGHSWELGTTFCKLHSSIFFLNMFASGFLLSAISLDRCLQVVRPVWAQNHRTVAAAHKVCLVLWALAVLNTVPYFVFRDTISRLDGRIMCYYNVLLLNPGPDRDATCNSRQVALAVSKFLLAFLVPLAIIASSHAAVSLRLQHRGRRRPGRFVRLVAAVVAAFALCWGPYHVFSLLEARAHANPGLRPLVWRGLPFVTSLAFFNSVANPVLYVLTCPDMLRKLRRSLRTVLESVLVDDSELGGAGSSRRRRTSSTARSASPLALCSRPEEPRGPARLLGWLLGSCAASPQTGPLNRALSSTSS
Experimental: Compounds of the invention were tested using the following biological test method to determine their ability to displace PGD2 from the CRTH2 receptor.
CRTH2 Radioligand Binding Assay
The receptor binding assay is performed in a final volume of 200 μL binding buffer [10 mM BES (pH 7.4), 1 mM EDTA, 10 mM manganese chloride, 0.01% BSA] and 1 nM [^3H]-PGD2 (Amersham Biosciences UK Ltd). Ligands are added in assay buffer containing a constant amount of DMSO (1% by volume). Total binding is determined using 1% by volume of DMSO in assay buffer and non-specific binding is determined using 10 μM of unlabeled PGD2 (Sigma). Human embryonic kidney (HEK) cell membranes (3.5 μg) expressing the CRTH2 receptor are incubated with 1.5 mg wheatgerm agglutinin SPA beads and 1 nM [^3H]-PGD2 (Amersham Biosciences UK Ltd) and the mixture incubated for 3 hours at room temperature. Bound [^3H]-PGD2 is detected using a Microbeta TRILUX liquid scintillation counter (Perkin Elmer). Compound IC50 value is determined using a 6-point dose response curve in duplicate with a semi-log compound dilution series. IC50 calculations are performed using Excel and XLfit (Microsoft), and this value is used to determine a Ki value for the test compound using the Cheng-Prusoff equation.

CRTH2 receptor [2] = biological target: T1, CRTH2 receptor; experiment: GTPγS functional assay; assay type: biochemical; details: HEK cell membranes expressing the CRTH2 receptor; PGD2 30 nM; [35S]-GTPγS; Ki from IC50 by Cheng-Prusoff
Experimental: The GTP[…]S Assay is performed in a final volume of […] assay buffer (20 mM HEPES pH 7.4, 10 mM MgCl2, 100 mM NaCl, 10 μg/mL saponin). DMSO concentrations are kept constant at 1% by volume. Human embryonic kidney (HEK) cell membranes (3.5 μg) expressing the CRTH2 receptor are incubated with the compounds for 15 min at 30° C. prior to addition of PGD2 (30 nM final concentration) and GTP (10 μM final concentration). The assay solutions are then incubated for 30 minutes at 30° C., followed by addition of [^35S]-GTPγS (0.1 nM final concentration). The assay plate is than shaken and incubated for 5 minutes at 30° C. Finally, SPA beads (Amersham Biosciences, UK) are added to a final concentration of 1.5 mg/well and the plate shaken and incubated for 30 minute at 30° C. The sealed plate is centrifuged at 1000 g for 10 mins at 30° C. and the bound [^35S]-GTPγS is detected on Microbeta scintillation counter (Perkin Elmer). Compound IC50 value is determined using a 6-point dose response curve in duplicate with a semi-log compound dilution series. IC50 calculations are performed using Excel and XLfit (Microsoft), and this value is used to determine a Ki value for the test compound using the Cheng-Prusoff equation.

With `Cc1c(Cc2sccc2S(=O)(=O)c2ccc(F)cc2)c2cc(F)ccc2n1CC(=O)O` [Example 1, {5-fluoro-3-[3-(4-fluorobenzenesulfonyl)thiophen-2-ylmethyl]-2-methylindol-1-yl}acetic acid] the Ki (CRTH2 receptor [1]) was 1.5 nM and the Ki (CRTH2 receptor [2]) was less than 10 nM.

`Cc1c(Cc2sccc2S(=O)(=O)c2ccccn2)c2cc(F)ccc2n1CC(=O)O` [Example 16, {5-fluoro-2-methyl-3-[3-(pyridine-2-sulfonyl)thiophen-2-ylmethyl]indol-1-yl}acetic acid] was tested, and the Ki (CRTH2 receptor [1]) was 2.4 nM and the Ki (CRTH2 receptor [2]) was less than 10 nM.

`Cc1c(Cc2ccccc2S(=O)(=O)N(C)c2ccccc2)c2cc(F)ccc2n1CC(=O)O` [Example 21, {5-fluoro-2-methyl-3-[2-(methylphenylsulfamoyl)benzyl]indol-1-yl}acetic acid] showed a Ki (CRTH2 receptor [1]) of 0.6 nM.

`Cc1c(Cc2cccnc2S(=O)(=O)c2ccccc2)c2cc(Cl)ccc2n1CC(=O)O` [Example 26, {5-chloro-3-[2-(benzenesulfonyl)pyridine-3-ylmethyl]-2-methylindol-1-yl}acetic acid] showed a Ki (CRTH2 receptor [1]) of 4.5 nM and a Ki (CRTH2 receptor [2]) of less than 10 nM.
